Reference: PubChem BioAssay (NCI)
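Values below derive from 48-hour exposures of cells grown in 96-well plates, with endpoints linearly interpolated between the two concentrations bracketing the appropriate inhibition level. GI50 is the concentration that inhibits growth by half. TGI denotes the concentration required for complete inhibition of growth.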

Experiments:
Assay in all cases: growth of human tumour cells (NCI), 48 h
786-0 renal = system: 786-0 renal
A498 renal = system: A498 renal
A549 NSCLC = system: A549 NSCLC
ACHN renal = system: ACHN renal
BT-549 breast = system: BT-549 breast
CAKI-1 renal = system: CAKI-1 renal
CCRF-CEM leukemia = system: CCRF-CEM leukemia
COLO 205 colon = system: COLO 205 colon
DU-145 prostate = system: DU-145 prostate
EKVX NSCLC = system: EKVX NSCLC
HCC-2998 colon = system: HCC-2998 colon
HCT-116 colon = system: HCT-116 colon
HCT-15 colon = system: HCT-15 colon
HL-60(TB) leukemia = system: HL-60(TB) leukemia
HOP-62 NSCLC = system: HOP-62 NSCLC
HOP-92 NSCLC = system: HOP-92 NSCLC
HS 578T breast = system: HS 578T breast
HT29 colon = system: HT29 colon
IGROV1 ovarian = system: IGROV1 ovarian
K-562 leukemia = system: K-562 leukemia
KM12 colon = system: KM12 colon
LOX IMVI melanoma = system: LOX IMVI melanoma
M14 melanoma = system: M14 melanoma
MALME-3M melanoma = system: MALME-3M melanoma
MCF7 breast = system: MCF7 breast
MDA-MB-231 breast = system: MDA-MB-231 breast
MDA-MB-435 = system: MDA-MB-435
MOLT-4 leukemia = system: MOLT-4 leukemia
NCI-H23 lung = system: NCI-H23 lung
NCI-H460 lung = system: NCI-H460 lung
NCI-H522 lung = system: NCI-H522 lung
OVCAR-4 ovarian = system: OVCAR-4 ovarian
OVCAR-5 ovarian = system: OVCAR-5 ovarian
OVCAR-8 ovarian = system: OVCAR-8 ovarian
PC-3 prostate = system: PC-3 prostate
RPMI-8226 leukemia = system: RPMI-8226 leukemia
RXF 393 renal = system: RXF 393 renal
SF-268 CNS = system: SF-268 CNS
SF-295 CNS = system: SF-295 CNS
SF-539 CNS = system: SF-539 CNS
SK-MEL-2 melanoma = system: SK-MEL-2 melanoma
SK-MEL-28 melanoma = system: SK-MEL-28 melanoma
SK-MEL-5 melanoma = system: SK-MEL-5 melanoma
SK-OV-3 ovarian = system: SK-OV-3 ovarian
SN12C renal = system: SN12C renal
SNB-19 CNS = system: SNB-19 CNS
SNB-75 CNS = system: SNB-75 CNS
SR leukemia = system: SR leukemia
SW-620 colon = system: SW-620 colon
TK-10 renal = system: TK-10 renal
U251 CNS = system: U251 CNS
UACC-257 melanoma = system: UACC-257 melanoma
UACC-62 melanoma = system: UACC-62 melanoma
UO-31 renal = system: UO-31 renal

Compound: COc1cc2c(cc1OC)C(Sc1ccc(F)cc1)c1c(nc(N)c(C#N)c1N)O2 (configuration not stated)
- GI50 (786-0 renal): 1090 nM
- TGI (786-0 renal): 2320 nM
- GI50 (A498 renal): 1290 nM
- TGI (A498 renal): 2570 nM
- GI50 (A549 NSCLC): 1530 nM
- TGI (A549 NSCLC): 3000 nM
- GI50 (ACHN renal): 1610 nM
- TGI (ACHN renal): 2980 nM
- GI50 (BT-549 breast): 760 nM
- TGI (BT-549 breast): 2170 nM
- GI50 (CAKI-1 renal): 1040 nM
- TGI (CAKI-1 renal): 2220 nM
- GI50 (CCRF-CEM leukemia): 164 nM
- TGI (CCRF-CEM leukemia): > 100000 nM
- GI50 (COLO 205 colon): 1100 nM
- TGI (COLO 205 colon): 2470 nM
- GI50 (DU-145 prostate): 1580 nM
- TGI (DU-145 prostate): 2920 nM
- GI50 (EKVX NSCLC): 1460 nM
- TGI (EKVX NSCLC): 2840 nM
- GI50 (HCC-2998 colon): 1510 nM
- TGI (HCC-2998 colon): 2970 nM
- GI50 (HCT-116 colon): 780 nM
- TGI (HCT-116 colon): 2140 nM
- GI50 (HCT-15 colon): 399 nM
- TGI (HCT-15 colon): 1660 nM
- GI50 (HL-60(TB) leukemia): 319 nM
- TGI (HL-60(TB) leukemia): 1280 nM
- GI50 (HOP-62 NSCLC): 1710 nM
- TGI (HOP-62 NSCLC): 3190 nM
- GI50 (HOP-92 NSCLC): 1190 nM
- TGI (HOP-92 NSCLC): 2640 nM
- GI50 (HS 578T breast): 1680 nM
- TGI (HS 578T breast): 4920 nM
- GI50 (HT29 colon): 1600 nM
- TGI (HT29 colon): 3210 nM
- GI50 (IGROV1 ovarian): 534 nM
- TGI (IGROV1 ovarian): 1950 nM
- GI50 (K-562 leukemia): 426 nM
- TGI (K-562 leukemia): > 100000 nM
- GI50 (KM12 colon): 1480 nM
- TGI (KM12 colon): 2900 nM
- GI50 (LOX IMVI melanoma): 325 nM
- TGI (LOX IMVI melanoma): 1090 nM
- GI50 (M14 melanoma): 1160 nM
- TGI (M14 melanoma): 2490 nM
- GI50 (MALME-3M melanoma): 1200 nM
- TGI (MALME-3M melanoma): 2540 nM
- GI50 (MCF7 breast): 477 nM
- TGI (MCF7 breast): 2040 nM
- GI50 (MDA-MB-231 breast): 1360 nM
- TGI (MDA-MB-231 breast): 2700 nM
- GI50 (MDA-MB-435): 1220 nM
- TGI (MDA-MB-435): 2540 nM
- GI50 (MOLT-4 leukemia): 382 nM
- TGI (MOLT-4 leukemia): > 100000 nM
- GI50 (NCI-H23 lung): 1270 nM
- TGI (NCI-H23 lung): 2850 nM
- GI50 (NCI-H460 lung): 1270 nM
- TGI (NCI-H460 lung): 2960 nM
- GI50 (NCI-H522 lung): 1250 nM
- TGI (NCI-H522 lung): 2530 nM
- GI50 (OVCAR-4 ovarian): 1540 nM
- TGI (OVCAR-4 ovarian): 2930 nM
- GI50 (OVCAR-5 ovarian): 1650 nM
- TGI (OVCAR-5 ovarian): 3110 nM
- GI50 (OVCAR-8 ovarian): 1260 nM
- TGI (OVCAR-8 ovarian): 2540 nM
- GI50 (PC-3 prostate): 1050 nM
- TGI (PC-3 prostate): 2470 nM
- GI50 (RPMI-8226 leukemia): 754 nM
- GI50 (RXF 393 renal): 751 nM
- TGI (RXF 393 renal): 2030 nM
- GI50 (SF-268 CNS): 1390 nM
- TGI (SF-268 CNS): 2900 nM
- GI50 (SF-295 CNS): 1620 nM
- TGI (SF-295 CNS): 3000 nM
- GI50 (SF-539 CNS): 1190 nM
- TGI (SF-539 CNS): 2490 nM
- GI50 (SK-MEL-2 melanoma): 859 nM
- TGI (SK-MEL-2 melanoma): 2140 nM
- GI50 (SK-MEL-28 melanoma): 982 nM
- TGI (SK-MEL-28 melanoma): 2340 nM
- GI50 (SK-MEL-5 melanoma): 1570 nM
- TGI (SK-MEL-5 melanoma): 2950 nM
- GI50 (SK-OV-3 ovarian): 1740 nM
- TGI (SK-OV-3 ovarian): 3170 nM
- GI50 (SN12C renal): 1130 nM
- TGI (SN12C renal): 2360 nM
- GI50 (SNB-19 CNS): 1250 nM
- TGI (SNB-19 CNS): 2540 nM
- GI50 (SNB-75 CNS): 1330 nM
- TGI (SNB-75 CNS): 2700 nM
- GI50 (SR leukemia): 281 nM
- TGI (SR leukemia): > 100000 nM
- GI50 (SW-620 colon): 709 nM
- TGI (SW-620 colon): 2040 nM
- GI50 (TK-10 renal): 1470 nM
- TGI (TK-10 renal): 2800 nM
- GI50 (U251 CNS): 738 nM
- TGI (U251 CNS): 2080 nM
- GI50 (UACC-257 melanoma): 1340 nM
- TGI (UACC-257 melanoma): 2670 nM
- GI50 (UACC-62 melanoma): 1200 nM
- TGI (UACC-62 melanoma): 2500 nM
- GI50 (UO-31 renal): 511 nM
- TGI (UO-31 renal): 1930 nM
